The structures appear in SMILES notation.

The target of the first experiment is T1, TAAR1 (Mus musculus, UniProt Q923Y8).
T1 construct: expressed in transfected cells; host or cells: HEK293 (ATCC #CRL-1573), stably transfected with pIRESneo2 expression plasmid
T1 sequence (Q923Y8 whole entry): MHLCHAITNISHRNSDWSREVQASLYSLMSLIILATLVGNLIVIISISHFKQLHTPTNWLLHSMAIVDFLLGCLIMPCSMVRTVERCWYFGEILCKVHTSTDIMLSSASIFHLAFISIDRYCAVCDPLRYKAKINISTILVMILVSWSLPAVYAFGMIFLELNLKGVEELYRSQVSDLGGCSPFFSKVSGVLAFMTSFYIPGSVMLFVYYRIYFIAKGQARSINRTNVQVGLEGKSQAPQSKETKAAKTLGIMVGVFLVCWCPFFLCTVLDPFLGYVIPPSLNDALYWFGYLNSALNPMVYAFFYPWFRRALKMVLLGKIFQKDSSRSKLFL
Description: Radioligand binding on membranes of HEK293 cells stably expressing TAAR1. The note with it: radioligand [3H]-rac-2-(1,2,3,4-tetrahydro-1-naphthyl)-2-imidazoline at 60 nM, 4° C., 30 min. How it is done:
(§1) For the construction of expression plasmids the coding sequences of human, rat and mouse TAAR 1 were amplified from genomic DNA essentially as described by Lindemann et al.. The Expand High Fidelity PCR System (Roche Diagnostics) was used with 1.5 mM Mg^2+ and purified PCR products were cloned into pCR2.1-TOPO cloning vector (Invitrogen) following the instructions of the manufacturer. PCR products were subcloned into the pIRESneo2 vector (BD Clontech, Palo Alto, Calif.), and expression vectors were sequence verified before introduction in cell lines.
HEK293 cells (ATCC #CRL-1573) were cultured essentially as described Lindemann et al. (2005). For the generation of stably transfected cell lines HEK293 cells were transfected with the pIRESneo2 expression plasmids containing the TAAR coding sequences (described above) with Lipofectamine 2000 (Invitrogen) according to the instructions of the manufacturer, and 24 hrs post transfection the culture medium was supplemented with 1 mg/ml G418 (Sigma, Buchs, Switzerland). After a culture period of about 10 d clones were isolated, expanded and tested for responsiveness to trace amines (all compounds purchased from Sigma) with the cAMP Biotrak Enzyme immunoassay (EIA) System (Amersham) following the non-acetylation EIA procedure provided by the manufacturer.
Cells at confluence were rinsed with ice-cold phosphate buffered saline without Ca^2+ and Mg^2+ containing 10 mM EDTA and pelleted by centrifugation at 1000 rpm for 5 min at 4° C. The pellet was then washed twice with ice-cold phosphate buffered saline and cell pellet was frozen immediately by immersion in liquid nitrogen and stored until use at −80° C. Cell pellet was then suspended in 20 ml HEPES-NaOH (20 mM), pH 7.4 containing 10 mM EDTA, and homogenized with a Polytron (PT 3000, Kinematica) at 10,000 rpm for 10 s. The homogenate was centrifuged at 48,000×g for 30 min at 4° C. and the pellet resuspended in 20 ml HEPES-NaOH (20 mM), pH 7.4 containing 0.1 mM EDTA (buffer A), and homogenized with a Polytron at 10,000 rpm for 10 s. The homogenate was then centrifuged at 48,000×g for 30 min at 4° C. and the pellet resuspended in 20 ml buffer A, and homogenized with a Polytron at 10,000 rpm for 10 s. Protein concentration was determined by the method of Pierce (Rockford, Ill.). The homogenate was then centrifuged at 48,000×g for 10 min at 4° C., resuspended in HEPES-NaOH (20 mM), pH 7.0 including MgCl2 (10 mM) and […] homogenized with a Polytron at 10,000 rpm for 10 s.
Binding assay was performed at 4° C. in a final volume of 1 ml, and with an incubation time of 30 min. The radioligand [^3H]-rac-2-(1,2,3,4-tetrahydro-1-naphthyl)-2-imidazoline was used at a concentration equal to the calculated Kd value of 60 nM to give a bound at around 0.1% of the total added radioligand concentration, and a specific binding which represented approximately 70-80% of the total binding. Non-specific binding was defined as the amount of [^3H]-rac-2-(1,2,3,4-tetrahydro-1-naphthyl)-2-imidazoline bound in the presence of the appropriate unlabelled ligand (10 μM). Competing ligands were tested in a wide range of concentrations (10 pM-30 μM). […] Each experiment was performed in duplicate. All incubations were terminated by rapid filtration through UniFilter-96 plates (Packard Instrument Company) and glass filter GF/C, pre-soaked for at least 2 h in polyethylenimine 0.3%, and using a Filtermate 96 Cell Harvester (Packard Instrument Company). The tubes and filters were then washed 3 times with 1 ml aliquots of cold buffer B. Filters were not dried and soaked in Ultima gold (45 μl/well, Packard Instrument Company) and bound radioactivity was counted by a TopCount Microplate Scintillation Counter (Packard Instrument Company).
What is called Ki is the dissociation constant of the complex between target and ligand, obtained from inhibition or displacement. A low value points to a stronger hold on the target. The compound `CCN(C[C@H]1CCCN1)c1cccc(Oc2ccccc2)c1` [Example 3, Ethyl-(3-phenoxy-phenyl)-(R)-1-pyrrolidin-2-ylmethyl-amine] registered a Ki of 0.0044 µM. `CCN(C[C@@H]1CCCN1)c1cccc(Oc2ccccc2)c1` [Example 4, Ethyl-(3-phenoxy-phenyl)-(S)-1-pyrrolidin-2-ylmethyl-amine] returned a Ki of 0.0172 µM.

`CCN(C[C@@H]1CCCN1)c1ccc(Cl)c(Cl)c1` [Example 6, (3,4-Dichloro-phenyl)-ethyl-(S)-1-pyrrolidin-2-ylmethyl-amine] had a Ki of 0.0028 µM. Compound `COc1cc(N(C)C[C@@H]2CCCN2)ccc1Cl` [Example 8, (4-Chloro-3-methoxy-phenyl)-methyl-(8)-1-pyrrolidin-2-ylmethyl-amine] had a Ki of 0.0859 µM. `CCN(C[C@@H]1CCCN1)c1ccc(Cl)c(OC)c1` [Example 9, (4-Chloro-3-methoxy-phenyl)-ethyl-(8)-1-pyrrolidin-2-ylmethyl-amine] showed a Ki of 0.0092 µM. Against the preceding compound, the Ki is about 9.3-fold lower. As to `CCN(C[C@@H]1CCCN1)c1ccc(Cl)cc1` [Example 11, (4-Chloro-phenyl)-ethyl-(8)-1-pyrrolidin-2-ylmethyl-amine], the affinity, expressed as Ki, was 0.0131 µM.

`COc1cc(N(C[C@@H]2CCCN2)C(C)C)ccc1Cl` [Example 12, (4-Chloro-3-methoxy-phenyl)-isopropyl-(S)-1-pyrrolidin-2-ylmethyl-amine] came in with a Ki of 0.0213 µM. The same measure, in the same setting: as for `CC(C)N(C[C@@H]1CCCN1)c1ccc(Cl)c(Cl)c1` [Example 13, (3,4-Dichloro-phenyl)-isopropyl-(S)-1-pyrrolidin-2-ylmethyl-amine], the figure is 0.005 µM; as for `CCN(C[C@H]1CCCN1)c1ccc(Cl)cc1` [Example 16, (4-Chloro-phenyl)-ethyl-(R)-1-pyrrolidin-2-ylmethyl-amine], 0.0056 µM; as for `CCN(C[C@@H]1CCN1)c1ccccc1` [Example 18, (S)-1-Azetidin-2-ylmethyl-ethyl-phenyl-amine], 0.0092 µM.

For `CCN(C[C@@H]1CCN1)c1cccc(OC)c1` [Example 19, (S)-1-Azetidin-2-ylmethyl-ethyl-(3-methoxy-phenyl)-amine], the inhibitory constant (Ki) was found to be 0.0137 µM.

In the case of `CCN(C[C@@H]1CCN1)c1cccc(Br)c1` [Example 20, (S)-1-Azetidin-2-ylmethyl-(3-bromo-phenyl)-ethyl-amine], the Ki is 0.0047 µM.

In the case of `CN(C[C@@H]1CCN1)c1ccc(Cl)cc1` [Example 21, (S)-1-Azetidin-2-ylmethyl-(4-chloro-phenyl)-methyl-amine], the inhibitory constant (Ki) was 0.021 µM. Consider `CC(C)N(C[C@@H]1CCN1)c1ccc(Cl)cc1` [Example 22, (S)-1-Azetidin-2-ylmethyl-(4-chloro-phenyl)-isopropyl-amine], for which the Ki turned out to be 0.041 µM. This Ki is about 2-fold higher than that of the compound before.

In turn, `Clc1ccc(N(Cc2ccccc2)C[C@@H]2CCN2)cc1` [Example 23, (S)-1-Azetidin-2-ylmethyl-benzyl-(4-chloro-phenyl)-amine] had a Ki of 0.0107 µM.

Another experiment has as its target T1, TAAR1. The experiment is described as follows: Radioligand Kd used in the TAAR1 binding assay. The conditions noted are these: radioligand in the TAAR1 membrane binding assay; species not stated; read-out: calculated Kd value. The method, then: as §1
Cells at confluence were rinsed with ice-cold phosphate buffered saline without Ca^2+ and Mg^2+ containing 10 mM EDTA and pelleted by centrifugation at 1000 rpm for 5 min at 4° C. The pellet was then washed twice with ice-cold phosphate buffered saline and cell pellet was frozen immediately by immersion in liquid nitrogen and stored until use at −80° C. […] Protein concentration was determined by the method of Pierce (Rockford, Ill.). […]
Binding assay was performed at 4° C. in a final volume of 1 ml, and with an incubation time of 30 min. […] The tubes and filters were then washed 3 times with 1 ml aliquots of cold buffer B. Filters were not dried and soaked in Ultima gold (45 μl/well, Packard Instrument Company) and bound radioactivity was counted by a TopCount Microplate Scintillation Counter (Packard Instrument Company).
The Kd is a measure of binding affinity in units of concentration. For `c1ccc2c(c1)CCCC2C1=NCCN1` (racemic) [[^3H]-rac-2-(1,2,3,4-tetrahydro-1-naphthyl)-2-imidazoline], the Kd is 0.06 µM.

The values above are taken from US20130005988A1, “2-AZETIDINEMETHANEAMINES AND 2-PYRROLIDINEMETHANEAMINES AS TAAR-LIGANDS” (priority 2007, published 2013).
